From patent US12162856B2, “β-catenin and B-cell lymphoma 9 (BCL9) inhibitors” (H. LEE MOFFITT CANCER CENTER AND RESEARCH INSTITUTE, INC., priority 2019, dated 2024)
Counter-ions that a name gives are not always drawn. Like-named read-outs stand apart in the source and are kept apart here.

Target: T1, β-catenin/BCL9 PPI (Homo sapiens, UniProt P35222)
T1 construct: Wild-type full-length β-catenin were cloned into a pET-28b vector; made in house; host or cells: Escherichia coli BL21 DE3 (β-catenin); BCL9 peptide chemically synthesized
T1 sequence (P35222 1-781): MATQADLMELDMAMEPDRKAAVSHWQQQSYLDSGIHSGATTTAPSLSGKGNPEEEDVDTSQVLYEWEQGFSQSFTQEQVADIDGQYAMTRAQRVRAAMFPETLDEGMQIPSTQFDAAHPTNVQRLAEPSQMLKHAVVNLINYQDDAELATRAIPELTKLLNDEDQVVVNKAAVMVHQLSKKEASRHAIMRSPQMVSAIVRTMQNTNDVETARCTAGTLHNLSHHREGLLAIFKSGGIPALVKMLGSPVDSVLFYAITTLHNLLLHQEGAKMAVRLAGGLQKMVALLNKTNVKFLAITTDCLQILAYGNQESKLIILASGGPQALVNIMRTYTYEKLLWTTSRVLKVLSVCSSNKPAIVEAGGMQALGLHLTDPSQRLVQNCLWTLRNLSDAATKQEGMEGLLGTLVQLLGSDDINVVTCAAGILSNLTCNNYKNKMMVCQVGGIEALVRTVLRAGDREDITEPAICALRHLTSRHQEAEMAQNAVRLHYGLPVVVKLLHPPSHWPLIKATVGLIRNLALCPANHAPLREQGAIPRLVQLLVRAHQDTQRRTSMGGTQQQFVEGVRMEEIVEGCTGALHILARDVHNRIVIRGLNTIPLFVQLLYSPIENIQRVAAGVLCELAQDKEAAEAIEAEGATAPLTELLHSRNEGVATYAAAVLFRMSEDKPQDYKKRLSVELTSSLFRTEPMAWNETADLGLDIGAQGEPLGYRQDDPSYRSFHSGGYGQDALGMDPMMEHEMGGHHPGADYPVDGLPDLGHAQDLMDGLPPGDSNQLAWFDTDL
Assay: AlphaScreen competitive inhibition assay of the β-catenin/BCL9 PPI
Format: binding
Settings: mean ± SD, triplicate, Ki derived from IC50 (Nikolovska-Coleska equation)
Method: Protein expression and purification. Wild-type full-length β-catenin were cloned into a pET-28b vector carrying a C-terminal 6×histidine (Novagen), and transformed into Escherichia coli BL21 DE3 (Novagen). Cells were cultured in LB medium with 30 μg/mL kanamycin until the OD600 was approximately 0.8, and then protein expression was induced with 400 μM of IPTG at 20° C. overnight. Cells were lysed by sonication. The proteins were purified by Ni-NTA affinity chromatography (30210, Qiagen) and dialyzed against a buffer containing 20 mM of Tris (pH 8.5), 100 mM NaCl, 10% glycerol, and 3 mM DTT. The purity of β-eaten in was greater than 95% as determined by SDS-PAGE gel analysis. Native non-denaturing gel electrophoresis was performed to confirm the homogeneity of the purified proteins. Thermal-shift assay was performed on an iCycler iQ Real Time Detection System (Bio-Rad) to monitor protein stability and detect protein aggregation. Protein unfolding was evaluated through measuring the S15 fluorescence changes of fluorescent dye Sypro Orange when interacting with wild-type or mutant β-catenin proteins. A temperature increment of […] was applied. CD spectra were measured on a J-815 spectropolarimeter (Jasco). All spectra were recorded at room temperature, and the baseline control containing all of the substances except protein. Sample were prepared at a concentration around 1-5 μM in a buffer of 10 mM potassium phosphate and 100 mM potassium fluoride at pH 7.0 to ensure that the transmission of light through the sample was not restricted. All proteins were stable and no aggregation was observed under storage or assay conditions. Proteins were aliquoted and stored at −80° C.
BCL9 peptide synthesis and purification. Human BCL9 (residues 350-375), and […] biotinylated human BCL9 (residues 350-375) were synthesized. All synthesized peptides were purified by HPLC with purity >95%. The structures were validated by LC/MS. The sequences are as follows (Ahx, 6-aminohexanoic acid).
AlphaScreen competitive inhibition assays. For the competitive inhibition assays of the β-catenin/BCL9 PPI, the negative control (equivalent to 0% inhibition) refers to 5.0 nM of biotinylated BCL9, 40 nM of His6-tagged β-catenin, and 10 μg/mL of donor and acceptor beads in a final volume of 25 μL assay buffer, but no tested inhibitor present. The positive control (equivalent to 100% inhibition) refers to 5.0 nM of biotinylated BCL9 and […] of donor and acceptor beads in a final volume of 25 μL assay buffer.
For the β-catenin/BCL9 assay, 5 nM of biotinylated BCL9 and 40 nM of His6-tagged β-catenin were incubated in assay buffer at 4° C. for 30 min. Different concentrations of the tested inhibitor were added and incubated in 20 μL assay buffer at 4° C. for another 1 h. All of the above assay plates were covered and gently mixed on an orbital shaker. The donor and acceptor beads were then added to the plates to a final concentration of 10 μg/mL in 25 μL assay buffer. The mixture was incubated for 1 h at 4° C. before detection. The IC50 value was determined by nonlinear least-square analysis of GraphPad Prism 5.0. The Ki values were derived from the IC50 values using a method reported by Nikolovska-Coleska et al (Nikolovska-Coleska, Z.; Wang, R.; Fang, X.; Pan, H.; Tomita, Y.; Li, P.; Roller, P. P.; Krajewski, K.; Saito, N. G.; Stuckey, J. A.; Wang, S. Development and optimization of a binding assay for the XIAP BIR3 domain using fluorescence polarization. Anal. Biochem. 2004, 332, 261-273.). The assays were conducted under the conditions required by Nikolovska-Coleska et al.'s equation for determining the Ki values. All of the experiments were performed in triplicate. The results were expressed as mean±standard deviation.

[1] = experiment 1, read-out: Ki (μM ± SD) experiment 1
[2] = experiment 2, read-out: Ki (μM ± SD) experiment 2
[3] = experiment 3, read-out: Ki (μM ± SD) experiment 3
[4] = experiment 4, read-out: Ki (μM ± SD) experiment 4

Row | SMILES | Ki [1] | Ki [2] | Ki [3] | Ki [4]
1 | NCCCC(=O)Nc1cc(F)cc(C(=O)N2CCN(C(=O)c3ccc(O[C@H]4CCNC4)c(C4CCCCC4)c3)CC2)c1 [Compound 1, (S)-4-Amino-N-(3-(4-(3-cyclohexyl-4-(pyrrolidin-3-yloxy)benzoyl)piperazine-1-carbonyl)-5-fluorophenyl) butanamide ditrifluoroacetate] | 310 ± 48 µM | 310 ± 23 µM |  | 
2 | NCCCCC(=O)Nc1cc(F)cc(C(=O)N2CCN(C(=O)c3ccc(O[C@H]4CCNC4)c(C4CCCCC4)c3)CC2)c1 [Compound 2, (S)-5-Amino-N-(3-(4-(3-cyclohexyl-4-(pyrrolidin-3-yloxy)benzoyl)piperazine-1-carbonyl)-5-fluorophenyl) pentanamide ditrifluoroacetate] | 230 ± 33 µM | 220 ± 26 µM |  | 
3 | CC(C)(N)C(=O)Nc1cc(F)cc(C(=O)N2CCN(C(=O)c3ccc(O[C@H]4CCNC4)c(C4CCCCC4)c3)CC2)c1 [Compound 3, (S)-2-Amino-N-(3-(4-(3-cyclohexyl-4-(pyrrolidin-3-yloxy)benzoyl)piperazine-1-carbonyl)-5-fluorophenyl)-2-methylpropanamide ditrifluoroacetate] | 310 ± 32 µM | 550 ± 46 µM |  | 
4 | CC(C)(CN)C(=O)Nc1cc(F)cc(C(=O)N2CCN(C(=O)c3ccc(O[C@H]4CCNC4)c(C4CCCCC4)c3)CC2)c1 [Compound 4, (S)-3-Amino-N-(3-(4-(3-cyclohexyl-4-(pyrrolidin-3-yloxy)benzoyl)piperazine-1-carbonyl)-5-fluorophenyl)-2,2-dimethylpropanamide ditrifluoroacetate] | 780 ± 59 µM | 310 ± 43 µM |  | 
5 | O=C(Nc1cc(F)cc(C(=O)N2CCN(C(=O)c3ccc(O[C@H]4CCNC4)c(C4CCCCC4)c3)CC2)c1)C1CCNCC1 [Compound 5, (S)—N-(3-(4-(3-cyclohexyl-4-(pyrrolidin-3-yloxy)benzoyl)piperazine-1-carbonyl)-5-fluorophenyl) piperidine-4-carboxamide ditrifluoroacetate] | 157 ± 17 µM | 160 ± 22 µM |  | 
6 | CN(C(=O)CCCN)c1cc(F)cc(C(=O)N2CCN(C(=O)c3ccc(O[C@H]4CCNC4)c(C4CCCCC4)c3)CC2)c1 [Compound 6, (S)-4-amino-N-(3-(4-(3-cyclohexyl-4-(pyrrolidin-3-yloxy)benzoyl)piperazine-1-carbonyl)-5-fluorophenyl)-N-methylbutanamide ditrifluoroacetate] | 840 ± 64 µM | 380 ± 44 µM |  | 
7 | CN(C(=O)CCCCN)c1cc(F)cc(C(=O)N2CCN(C(=O)c3ccc(O[C@H]4CCNC4)c(C4CCCCC4)c3)CC2)c1 [Compound 7, (S)-5-amino-N-(3-(4-(3-cyclohexyl-4-(pyrrolidin-3-yloxy)benzoyl)piperazine-1-carbonyl)-5-fluorophenyl)-N-methylpentanamide ditrifluoroacetate] | 730 ± 73 µM | 240 ± 33 µM |  | 
8 | CN(C(=O)C(C)(C)N)c1cc(F)cc(C(=O)N2CCN(C(=O)c3ccc(O[C@H]4CCNC4)c(C4CCCCC4)c3)CC2)c1 [Compound 8, (S)-2-amino-N-(3-(4-(3-cyclohexyl-4-(pyrrolidin-3-yloxy)benzoyl)piperazine-1-carbonyl)-5-fluorophenyl)-N,2-dimethylpropanamide ditrifluoroacetate] | 32 ± 4 µM | 71 ± 8.7 µM |  | 
9 | CN(C(=O)C(C)(C)CN)c1cc(F)cc(C(=O)N2CCN(C(=O)c3ccc(O[C@H]4CCNC4)c(C4CCCCC4)c3)CC2)c1 [Compound 9, (S)-3-amino-N-(3-(4-(3-cyclohexyl-4-(pyrrolidin-3-yloxy)benzoyl)piperazine-1-carbonyl)-5-fluorophenyl)-N,2,2-trimethylpropanamide ditrifluoroacetate] | > 90 µM | > 90 µM |  | 

More lines, now with the values ahead:

Row | Ki [1] | Ki [2] | Ki [3] | Ki [4] | SMILES
10 | 420 ± 50 µM | 76 ± 8.3 µM |  |  | CN(C(=O)C1CCNCC1)c1cc(F)cc(C(=O)N2CCN(C(=O)c3ccc(O[C@H]4CCNC4)c(C4CCCCC4)c3)CC2)c1 [Compound 10, (S)—N-(3-(4-(3-cyclohexyl-4-(pyrrolidin-3-yloxy)benzoyl)piperazine-1-carbonyl)-5-fluorophenyl)-N-methylpiperidine-4-carboxamide ditrifluoroacetate]
11 | 170 ± 23 µM | 150 ± 18 µM |  |  | CC(C)(CN)C(=O)Nc1cc(F)cc(C(=O)N2CCN(C(=O)c3ccc(O[C@H]4CCNC4)c(C4CCC(C(F)(F)F)CC4)c3)CC2)c1 (stereo partly drawn) [Compound 11, (S)-3-amino-N-(3-fluoro-5-(4-(4-(pyrrolidin-3-yloxy)-3-(4-(trifluoromethyl)cyclohexyl)benzoyl)piperazine-1-carbonyl)phenyl)-2,2-dimethylpropanamide ditrifluoroacetate]
12 |  |  | 61 ± 7.5 µM | 37 ± 3.6 µM | CC(=O)Nc1cc(F)cc(C(=O)N2CCN(C(=O)c3ccc(O[C@H]4CCNC4)c(C4CCCCC4)c3)CC2)c1 [Compound 12, (S)—N-(3-(4-(3-Cyclohexyl-4-(pyrrolidin-3-yloxy)benzoyl)piperazine-1-carbonyl)-5-fluorophenyl) acetamide trifluoroacetate]
13 |  |  | 330 ± 34 µM | 100 ± 18 µM | CC(=O)Nc1cc(F)cc(C(=O)N2CCN(C(=O)c3ccc(O[C@H]4CCNC4)c(C4CCCCC4)c3)[C@@H](C)C2)c1 [Compound 13, N-(3-((S)-4-(3-Cyclohexyl-4-(((S)-pyrrolidin-3-yl)oxy)benzoyl)-3-methylpiperazine-1-carbonyl)-5-fluorophenyl) acetamide trifluoroacetate]
14 |  |  | 790 ± 58 µM | 780 ± 130 µM | CC[C@H]1CN(C(=O)c2cc(F)cc(NC(C)=O)c2)CCN1C(=O)c1ccc(O[C@H]2CCNC2)c(C2CCCCC2)c1 [Compound 14, N-(3-((S)-4-(3-Cyclohexyl-4-(((S)-pyrrolidin-3-yl)oxy)benzoyl)-3-ethylpiperazine-1-carbonyl)-5-fluorophenyl) acetamide trifluoroacetate]
15 |  |  | 280 ± 27 µM | 290 ± 61 µM | CC(=O)Nc1cc(F)cc(C(=O)N2CCN(C(=O)c3ccc(O[C@H]4CCNC4)c(C4CCCCC4)c3)[C@@H](C(C)C)C2)c1 [Compound 15, N-(3-((S)-4-(3-Cyclohexyl-4-(((S)-pyrrolidin-3-yl)oxy)benzoyl)-3-isopropylpiperazine-1-carbonyl)-5-fluorophenyl) acetamide trifluoroacetate]
